This test deals with T1, human recombinant LPA2 expressed in CHO cells (Homo sapiens, UniProt Q9HBW0).
T1 construct: expressed in transfected cells; host or cells: CHO cells (CHO-hLPA2 cell line)
Nature of the test: FLIPR calcium mobilization assay, LPA2 antagonism in CHO-hLPA2 cells. In kind it is cell-based. Conditions: CHO-hLPA2 cells, inhibition of LPA EC80 Ca2+ response, 30 min pre-incubation; read-out: LPA2 IC50. The essentials:
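CHO cells stably expressing human LPA2, loaded 30 min at 37° C with 5 μM Cal-520 AM plus 2.5 mM probenecid in HEPES buffer pH 7.4, then preincubated 30 min with antagonist (11-point series, 0.5% DMSO final). Challenged with LPA at EC80; baseline-subtracted peak FLIPR fluorescence converted to % inhibition and pIC50 by four-parameter logistic fit.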

T1 sequence (Q9HBW0 whole entry): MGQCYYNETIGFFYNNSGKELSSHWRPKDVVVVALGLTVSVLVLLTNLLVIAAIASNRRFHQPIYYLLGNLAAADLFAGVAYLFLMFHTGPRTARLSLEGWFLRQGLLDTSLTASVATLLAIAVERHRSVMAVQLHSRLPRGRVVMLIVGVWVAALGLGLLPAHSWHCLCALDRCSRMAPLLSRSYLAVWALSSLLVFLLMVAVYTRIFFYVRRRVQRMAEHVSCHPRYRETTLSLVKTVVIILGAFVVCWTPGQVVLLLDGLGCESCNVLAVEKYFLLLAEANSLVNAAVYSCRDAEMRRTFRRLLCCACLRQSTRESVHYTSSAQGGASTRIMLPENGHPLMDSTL

`CC(=O)Nc1cc(F)c(S(=O)(=O)N2CCN(C[C@H](C)Nc3ncnc4c(-c5cccnc5)cccc34)CC2)cc1C` [Example 42, N-[5-fluoro-2-methyl-4-({4-[(2S)-2-{[8-(pyridin-3-yl)quinazolin-4-yl]amino}propyl]piperazin-1-yl}sulfonyl)phenyl]acetamide]: the IC50 was 10 to 100 nM.
In the case of `CC(=O)N1CCc2cc(S(=O)(=O)N3CCN(C[C@H](C)Nc4ncnc5c(-c6cccnc6)cccc45)CC3)ccc21` [Example 43, 1-[5-({4-[(2S)-2-{[8-(pyridin-3-yl)quinazolin-4-yl]amino}propyl]piperazin-1-yl}sulfonyl)-2,3-dihydro-1H-indol-1-yl]ethan-1-one], the IC50 was < 10 nM.
On to `COC(=O)Nc1nc(C)c(S(=O)(=O)N2CCN(C[C@H](C)Nc3ncnc4c(-c5ccnc(N6CCN(C)CC6)c5)cccc34)CC2)s1` [Example 44, methyl N-[4-methyl-5-({4-[(2S)-2-({8-[2-(4-methylpiperazin-1-yl)pyridin-4-yl]quinazolin-4-yl}amino)propyl]piperazin-1-yl}sulfonyl)-1,3-thiazol-2-yl]carbamate], for which the IC50 was < 10 nM.
For the molecule `C[C@@H](CN1CCN(S(=O)(=O)c2ccc3[nH]c(=O)sc3c2)CC1)Nc1ncnc2c(-c3cccc(CN(C)C)c3)cccc12` [Example 45, 6-({4-[(2S)-2-[(8-{3-[(dimethylamino)methyl]phenyl}quinazolin-4-yl)amino]propyl]piperazin-1-yl}sulfonyl)-2,3-dihydro-1,3-benzothiazol-2-one], the IC50 is < 10 nM.
Regarding `C[C@@H](CN1CCN(S(=O)(=O)c2ccc(Cl)c(Cl)c2)CC1)Nc1ncnc2c(-c3cccc(CN(C)C)c3)cccc12` [Example 46, N-[(2S)-1-[4-(3,4-dichlorobenzenesulfonyl)piperazin-1-yl]propan-2-yl]-8-{3-[(dimethylamino)methyl]phenyl}quinazolin-4-amine], the IC50 was < 10 nM.
In the case of `COC(=O)Nc1ncc(S(=O)(=O)N2CCN(C[C@H](C)Nc3ncnc4c(-c5cccnc5)cccc34)CC2)s1` [Example 47, methyl N-[5-({4-[(2S)-2-{[8-(pyridin-3-yl)quinazolin-4-yl]amino}propyl]piperazin-1-yl}sulfonyl)-1,3-thiazol-2-yl]carbamate] it was < 10 nM.
In the case of `COC(=O)Nc1nc(C)c(S(=O)(=O)N2CCN(C[C@H](C)Nc3ncnc4c(-c5cccnc5C)cccc34)CC2)s1` [Example 48, methyl N-[4-methyl-5-({4-[(2S)-2-{[8-(2-methylpyridin-3-yl)quinazolin-4-yl]amino}propyl]piperazin-1-yl}sulfonyl)-1,3-thiazol-2-yl]carbamate], the IC50 was < 10 nM.
In the case of `COCC(=O)Nc1ncc(S(=O)(=O)N2CCN(C[C@H](C)Nc3ncnc4c(-c5cccnc5)cccc34)CC2)s1` [Example 49, 2-methoxy-N-[5-({4-[(2S)-2-{[8-(pyridin-3-yl)quinazolin-4-yl]amino}propyl]piperazin-1-yl}sulfonyl)-1,3-thiazol-2-yl]acetamide] it was 10 to 100 nM.
For the molecule `C[C@@H](CN1CCN(S(=O)(=O)c2ccc3[nH]c(=O)[nH]c(=O)c3c2)CC1)Nc1ncnc2c(-c3cccnc3)cccc12` [Example 51, 6-({4-[(2S)-2-{[8-(pyridin-3-yl)quinazolin-4-yl]amino}propyl]piperazin-1-yl}sulfonyl)-1,2,3,4-tetrahydroquinazoline-2,4-dione], the IC50 was < 10 nM.
For `C[C@@H](CN1CCN(S(=O)(=O)c2ccc(F)c(F)c2)CC1)Nc1ncnc2c(-c3cccnc3)cccc12` [Example 52, N-[(2S)-1-[4-(3,4-difluorobenzenesulfonyl)piperazin-1-yl]propan-2-yl]-8-(pyridin-3-yl)quinazolin-4-amine], the half-maximal inhibitory concentration (IC50) is 10 to 100 nM.
In the case of `CC(=O)Nc1cc(F)c(S(=O)(=O)N2CCN(C[C@H](C)Nc3ncnc4c(-c5cccc(CN(C)C)c5)cccc34)CC2)cc1C` [Example 53, N-[4-({4-[(2S)-2-[(8-{3-[(dimethylamino)methyl]phenyl}quinazolin-4-yl)amino]propyl]piperazin-1-yl}sulfonyl)-5-fluoro-2-methylphenyl]acetamide] it was < 10 nM; in that of `CC(=O)N1CCc2cc(S(=O)(=O)N3CCN(C[C@H](C)Nc4ncnc5c(-c6cccc(CN(C)C)c6)cccc45)CC3)ccc21` [Example 54, 1-[5-({4-[(2S)-2-[(8-{3-[(dimethylamino)methyl]phenyl}quinazolin-4-yl)amino]propyl]piperazin-1-yl}sulfonyl)-2,3-dihydro-1H-indol-1-yl]ethan-1-one], < 10 nM.
In the case of `COC(=O)Nc1nc(C)c(S(=O)(=O)N2CCN(C[C@H](C)Nc3ncnc4c(-c5cncc(CN(C)C)c5)cccc34)CC2)s1` [Example 55, methyl N-[5-({4-[(2S)-2-[(8-{5-[(dimethylamino)methyl]pyridin-3-yl}quinazolin-4-yl)amino]propyl]piperazin-1-yl}sulfonyl)-4-methyl-1,3-thiazol-2-yl]carbamate] it was < 10 nM; in that of `COC(=O)Nc1nc(C)c(S(=O)(=O)N2CCN(C[C@H](C)Nc3ncnc4c(-c5ccc(N)nc5)cccc34)CC2)s1` [Example 56, methyl N-[5-({4-[(2S)-2-{[8-(6-aminopyridin-3-yl)quinazolin-4-yl]amino}propyl]piperazin-1-yl}sulfonyl)-4-methyl-1,3-thiazol-2-yl]carbamate], 10 to 100 nM; in that of `COC(=O)Nc1nc(C)c(S(=O)(=O)N2CCN(C[C@H](C)Nc3ncnc4c(-c5ccc6c(c5)CNC6)cccc34)CC2)s1` [Example 57, methyl N-[5-({4-[(2S)-2-{[8-(2,3-dihydro-1H-isoindol-5-yl)quinazolin-4-yl]amino}propyl]piperazin-1-yl}sulfonyl)-4-methyl-1,3-thiazol-2-yl]carbamate], < 10 nM.
In the case of `COC(=O)Nc1nc(C)c(S(=O)(=O)N2CCN(C[C@H](C)Nc3ncnc4c(-c5cnn(CCN(C)C)c5)cccc34)CC2)s1` [Example 58, methyl N-[5-({4-[(2S)-2-[(8-{1-[2-(dimethylamino)ethyl]-1H-pyrazol-4-yl}quinazolin-4-yl)amino]propyl]piperazin-1-yl}sulfonyl)-4-methyl-1,3-thiazol-2-yl]carbamate], the IC50 is < 10 nM.
In the case of `C[C@@H](CN1CCN(S(=O)(=O)c2ccc3[nH]c(=O)cnc3c2)CC1)Nc1ncnc2c(-c3cccnc3)cccc12` [Example 59, 6-({4-[(2S)-2-{[8-(pyridin-3-yl)quinazolin-4-yl]amino}propyl]piperazin-1-yl}sulfonyl)-1,2-dihydroquinoxalin-2-one] it was 10 to 100 nM.
In the case of `COC(=O)Nc1nc(C)c(S(=O)(=O)N2CCN(C[C@H](C)Nc3ncnc4c(-c5ccc(CN(C)C)nc5)cccc34)CC2)s1` [Example 60, methyl N-[5-({4-[(2S)-2-[(8-{6-[(dimethylamino)methyl]pyridin-3-yl}quinazolin-4-yl)amino]propyl]piperazin-1-yl}sulfonyl)-4-methyl-1,3-thiazol-2-yl]carbamate] it was < 10 nM.
As for `COC(=O)Nc1nc(C)c(S(=O)(=O)N2CCN(C[C@H](C)Nc3ncnc4c(-c5cncc(N)c5)cccc34)CC2)s1` [Example 61, methyl N-[5-({4-[(2S)-2-{[8-(5-aminopyridin-3-yl)quinazolin-4-yl]amino}propyl]piperazin-1-yl}sulfonyl)-4-methyl-1,3-thiazol-2-yl]carbamate], the IC50 was < 10 nM.
In the case of `COC(=O)Nc1nc(C)c(S(=O)(=O)N2CCN(C[C@H](C)Nc3ncnc4c(-c5cn(C)nc5C)cccc34)CC2)s1` [Example 63, methyl N-[5-({4-[(2S)-2-{[8-(1,3-dimethyl-1H-pyrazol-4-yl)quinazolin-4-yl]amino}propyl]piperazin-1-yl}sulfonyl)-4-methyl-1,3-thiazol-2-yl]carbamate], the IC50 was < 10 nM.
In the case of `COC(=O)Nc1nc(C)c(S(=O)(=O)N2CCN(C[C@H](C)Nc3ncnc4c(-c5cnn(C)c5C)cccc34)CC2)s1` [Example 64, methyl N-[5-({4-[(2S)-2-{[8-(1,5-dimethyl-1H-pyrazol-4-yl)quinazolin-4-yl]amino}propyl]piperazin-1-yl}sulfonyl)-4-methyl-1,3-thiazol-2-yl]carbamate] it was < 10 nM; in that of `COC(=O)Nc1nc(C)c(S(=O)(=O)N2CCN(C[C@H](C)Nc3ncnc4c(-c5cnn(C)c5)cccc34)CC2)s1` [Example 65, methyl N-[4-methyl-5-({4-[(2S)-2-{[8-(1-methyl-1H-pyrazol-4-yl)quinazolin-4-yl]amino}propyl]piperazin-1-yl}sulfonyl)-1,3-thiazol-2-yl]carbamate], < 10 nM; in that of `C[C@@H](CN1CCN(S(=O)(=O)c2ccc3c(c2)CC(=O)N3)CC1)Nc1ncnc2c(-c3cccnc3)cccc12` [Example 66, 5-({4-[(2S)-2-{[8-(pyridin-3-yl)quinazolin-4-yl]amino}propyl]piperazin-1-yl}sulfonyl)-2,3-dihydro-1H-indol-2-one], 10 to 100 nM.
Turning to `COC(=O)Nc1nc(C)c(S(=O)(=O)N2CCN(C[C@H](C)Nc3ncnc4c(-c5cncc(N6CCN(C)CC6)c5)cccc34)CC2)s1` [Example 67, methyl N-[4-methyl-5-({4-[(2S)-2-({8-[5-(4-methylpiperazin-1-yl)pyridin-3-yl]quinazolin-4-yl}amino)propyl]piperazin-1-yl}sulfonyl)-1,3-thiazol-2-yl]carbamate], the IC50 is < 10 nM.
Regarding `CC(=O)N1CCc2cc(S(=O)(=O)N3CCN(C[C@H](C)Nc4ncnc5c(-c6cn(C)nc6C(F)(F)F)cccc45)CC3)ccc21` [Example 68, 1-[5-({4-[(2S)-2-({8-[1-methyl-3-(trifluoromethyl)-1H-pyrazol-4-yl]quinazolin-4-yl}amino)propyl]piperazin-1-yl}sulfonyl)-2,3-dihydro-1H-indol-1-yl]ethan-1-one], the IC50 is < 10 nM.

As a reminder, the IC50 is the concentration needed to halve the response being measured.

These data come from US20240190860A1, “8-CYCLO-SUBSTITUTED QUINAZOLINE DERIVATIVES AS LPA RECEPTOR 2 INHIBITORS” (CHIESI FARMACEUTICI S.p.A., priority 2021, published 2024).
